Source: the NIST ThermoML archive (doi:10.1021/je0497247)

Assays:
[1] = 100 kPa, Liquid; for viscosity: Capillary tube (Ostwald / Ubbelohde) method; for mass density: Pycnometric method
[2] = wn = mass fraction of the nth substance listed; conditions: 100 kPa, Liquid; for mass density: Pycnometric method; for viscosity: Capillary tube (Ostwald / Ubbelohde) method

O=C(O)c1ccccc1 [benzoic acid]
[1]
Conditions	mass density [kg/m3]	thermal conductivity [W/m/K]	viscosity [mPa·s]
400.3 K	–	–	1.372
401.3 K	1089.5	–	–
406.8 K	–	0.139	–
409.3 K	–	–	1.238
410.3 K	1080.2	–	–
418.3 K	–	–	1.117
419.3 K	1069.8	–	–
424.4 K	–	0.137	–
427.2 K	–	–	1.026
428.2 K	1060.2	–	–
432.1 K	1055	–	0.953
444.9 K	–	0.134	–
447.1 K	1036	–	0.802
465.1 K	–	0.132	–

O=C(O)c1ccccc1 [benzoic acid] + O
[2]
Conditions	mass density [kg/m3]	thermal conductivity [W/m/K]	viscosity [mPa·s]
373 K, w1 = 0.1	–	0.659	–
374.6 K, w1 = 0.05	–	0.671	–
379.1 K, w1 = 0.1	974.1	–	–
379.6 K, w1 = 0.05	963.7	–	–
380.6 K, w1 = 0.1	–	–	0.319
381.1 K, w1 = 0.05	–	–	0.288
391 K, w1 = 0.2	–	0.649	–
392.9 K, w1 = 0.1	961	–	–
393.6 K, w1 = 0.05	–	0.675	–
393.6 K, w1 = 0.4	–	0.575	–
393.9 K, w1 = 0.8	–	0.199	–
394.2 K, w1 = 0.1	–	0.662	–
394.6 K, w1 = 0.05	951.9	–	–
395.9 K, w1 = 0.1	–	–	0.272
397.6 K, w1 = 0.05	–	–	0.256
400.3 K, w1 = 0.2	963.5	–	–
400.3 K, w1 = 1	–	–	1.372
400.8 K, w1 = 0.4	988.8	–	–
400.9 K, w1 = 0.8	1050.1	–	–
401.3 K, w1 = 1	1089.5	–	–
401.6 K, w1 = 0.6	1013.8	–	–
401.8 K, w1 = 0.2	–	–	0.329
402.3 K, w1 = 0.4	–	–	0.501
402.4 K, w1 = 0.8	–	–	0.931
403.1 K, w1 = 0.6	–	–	0.708
406.8 K, w1 = 1	–	0.139	–
409.2 K, w1 = 0.2	–	0.65	–
409.2 K, w1 = 0.4	–	0.571	–
409.3 K, w1 = 1	–	–	1.238
410.3 K, w1 = 1	1080.2	–	–
410.9 K, w1 = 0.1	–	0.67	–
412.1 K, w1 = 0.1	945.4	–	–
413.2 K, w1 = 0.8	–	0.197	–
413.3 K, w1 = 0.05	–	0.676	–
413.4 K, w1 = 0.05	935.5	–	–
413.8 K, w1 = 0.2	950.8	–	–
414.8 K, w1 = 0.4	975.1	–	–
414.8 K, w1 = 0.8	1035	–	–
415.1 K, w1 = 0.1	–	–	0.236
415.9 K, w1 = 0.6	999.2	–	–
416.4 K, w1 = 0.05	–	–	0.219
416.8 K, w1 = 0.2	–	–	0.274
417.8 K, w1 = 0.4	–	–	0.383
418 K, w1 = 0.2	–	0.651	–
418.3 K, w1 = 1	–	–	1.117
418.8 K, w1 = 0.8	–	–	0.69
418.9 K, w1 = 0.6	–	–	0.547
419.3 K, w1 = 1	1069.8	–	–
420.1 K, w1 = 0.4	–	0.549	–
424.4 K, w1 = 1	–	0.137	–
427.2 K, w1 = 1	–	–	1.026
428.2 K, w1 = 1	1060.2	–	–
428.4 K, w1 = 0.1	929.6	–	–
430.1 K, w1 = 0.4	–	0.568	–
431.3 K, w1 = 0.8	1018.8	–	–
431.4 K, w1 = 0.1	–	–	0.211
431.9 K, w1 = 0.2	933.7	–	–
432.1 K, w1 = 1	1055	–	0.953
432.6 K, w1 = 0.4	955	–	–
433.1 K, w1 = 0.05	915.2	–	–
433.1 K, w1 = 0.8	–	0.192	–
433.9 K, w1 = 0.6	981.1	–	–
434.3 K, w1 = 0.8	–	–	0.542
434.9 K, w1 = 0.2	–	–	0.234
435.6 K, w1 = 0.4	–	–	0.309
436.1 K, w1 = 0.05	–	–	0.194
436.9 K, w1 = 0.6	–	–	0.399
444.9 K, w1 = 0.1	912.6	–	–
444.9 K, w1 = 1	–	0.134	–
447.1 K, w1 = 1	1036	–	0.802
447.9 K, w1 = 0.1	–	–	0.194
449.4 K, w1 = 0.8	1000.5	–	–
450.8 K, w1 = 0.05	896.3	–	–
451 K, w1 = 0.8	–	0.188	–
452.1 K, w1 = 0.4	932	–	–
452.4 K, w1 = 0.2	912	–	–
452.4 K, w1 = 0.8	–	–	0.438
453.4 K, w1 = 0.6	959.5	–	–
453.8 K, w1 = 0.05	–	–	0.177
455.1 K, w1 = 0.4	–	–	0.263
455.4 K, w1 = 0.2	–	–	0.206
456.4 K, w1 = 0.6	–	–	0.334
465.1 K, w1 = 1	–	0.132	–
